The values that follow come from ChEMBL document CHEMBL1770109, “SAR studies of pyridazinone derivatives as novel glucan synthase inhibitors” (Bioorg Med Chem Lett, 2011).

In brackets after ≈: the same amount, converted by molar mass.

For data set [1], the target named is Beta-1,3-glucan synthase (Candida albicans, UniProt O13428). The data set is described as follows: Inhibition of Candida albicans BWP17 1,3-beta-glucan synthase.
Data set [2] relates to Nakaseomyces glabratus. The data set is described as follows: Antifungal activity against Candida glabrata C624. The data set is classed as functional. The following applies: read-out: MIC100.
The test system of data set [3] is Candida albicans. Briefly: Antifungal activity against Candida albicans C693. The data set is classed as functional. Particulars: for MIC: read-out: MIC100.
Data set [4] in a line: AUC (0 to 6 hrs) in rat at 10 mg/kg, po. The following applies: plasma. Further details: time < 6 hr, dose 10 mg/kg, route oral. It counts as ADME, organism-based.

Sequence of Beta-1,3-glucan synthase (O13428 whole entry): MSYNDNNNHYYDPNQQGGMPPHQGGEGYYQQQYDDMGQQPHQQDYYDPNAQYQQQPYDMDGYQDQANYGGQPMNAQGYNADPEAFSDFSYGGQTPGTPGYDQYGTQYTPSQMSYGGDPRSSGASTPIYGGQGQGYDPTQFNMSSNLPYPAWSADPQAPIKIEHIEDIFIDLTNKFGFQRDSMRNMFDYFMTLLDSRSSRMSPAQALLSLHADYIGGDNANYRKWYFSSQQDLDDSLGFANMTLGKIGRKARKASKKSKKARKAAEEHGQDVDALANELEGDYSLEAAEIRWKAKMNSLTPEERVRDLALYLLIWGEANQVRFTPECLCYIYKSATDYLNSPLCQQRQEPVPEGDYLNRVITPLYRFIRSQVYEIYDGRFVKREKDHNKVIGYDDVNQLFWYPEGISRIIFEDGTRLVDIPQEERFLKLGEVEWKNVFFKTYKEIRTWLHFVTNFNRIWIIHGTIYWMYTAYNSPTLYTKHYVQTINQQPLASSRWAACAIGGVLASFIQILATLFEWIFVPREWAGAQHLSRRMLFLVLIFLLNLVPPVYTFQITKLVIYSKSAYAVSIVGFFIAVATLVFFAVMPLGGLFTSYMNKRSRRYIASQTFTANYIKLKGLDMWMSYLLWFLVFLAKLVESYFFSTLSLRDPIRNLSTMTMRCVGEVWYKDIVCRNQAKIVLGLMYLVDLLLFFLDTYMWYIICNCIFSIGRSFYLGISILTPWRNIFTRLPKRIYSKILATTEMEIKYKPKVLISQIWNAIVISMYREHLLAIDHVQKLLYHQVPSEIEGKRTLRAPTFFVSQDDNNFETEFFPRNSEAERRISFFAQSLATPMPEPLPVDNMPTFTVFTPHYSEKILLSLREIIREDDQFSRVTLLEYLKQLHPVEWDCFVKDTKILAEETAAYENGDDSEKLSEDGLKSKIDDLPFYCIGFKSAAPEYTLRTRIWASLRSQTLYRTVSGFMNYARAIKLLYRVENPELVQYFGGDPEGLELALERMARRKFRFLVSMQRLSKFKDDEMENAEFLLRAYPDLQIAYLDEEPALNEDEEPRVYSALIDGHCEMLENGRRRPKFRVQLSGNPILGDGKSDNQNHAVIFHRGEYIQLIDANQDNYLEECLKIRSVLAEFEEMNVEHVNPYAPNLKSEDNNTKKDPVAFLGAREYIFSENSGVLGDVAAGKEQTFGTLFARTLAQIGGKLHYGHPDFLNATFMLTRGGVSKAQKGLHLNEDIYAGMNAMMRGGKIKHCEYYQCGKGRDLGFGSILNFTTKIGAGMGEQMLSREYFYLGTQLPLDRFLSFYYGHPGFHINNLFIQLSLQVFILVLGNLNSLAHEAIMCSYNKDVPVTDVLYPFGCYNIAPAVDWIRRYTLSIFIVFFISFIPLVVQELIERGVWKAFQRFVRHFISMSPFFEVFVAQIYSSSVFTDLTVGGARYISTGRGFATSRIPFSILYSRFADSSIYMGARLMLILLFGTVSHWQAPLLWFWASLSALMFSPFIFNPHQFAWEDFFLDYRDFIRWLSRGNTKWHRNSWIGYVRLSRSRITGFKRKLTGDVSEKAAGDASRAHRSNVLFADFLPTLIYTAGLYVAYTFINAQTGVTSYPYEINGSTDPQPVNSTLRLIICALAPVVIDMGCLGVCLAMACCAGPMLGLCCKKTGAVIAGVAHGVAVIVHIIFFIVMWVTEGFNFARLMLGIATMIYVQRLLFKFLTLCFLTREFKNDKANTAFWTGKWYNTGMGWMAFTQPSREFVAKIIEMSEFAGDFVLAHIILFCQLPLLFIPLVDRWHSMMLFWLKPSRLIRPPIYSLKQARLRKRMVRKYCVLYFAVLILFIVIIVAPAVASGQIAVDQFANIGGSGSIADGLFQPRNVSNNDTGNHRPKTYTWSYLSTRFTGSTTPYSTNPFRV

By IC50 is commonly meant the midpoint of a concentration-inhibition curve. A higher IC50 goes with weaker potency in that assay. Consider `O=c1c(OC2CCCC2)c(N2CCN(S(=O)(=O)C3Cc4ccccc4C3)CC2)cnn1-c1cccc(Cl)c1`, for which inhibition in data set [1] was half-maximal at 522 nM (IC50). For the same compound, the results for the MIC in data set [2] and in data set [3] were 0.1 µg/mL (≈ 0.18 µM) and 1.56 µg/mL (≈ 2.81 µM), respectively.

Compound `CCOCCOc1c(N2CCN(S(=O)(=O)Cc3ccccc3)CC2)c(C)nn(-c2ccccc2)c1=O` had an IC50 in data set [1] of 139000 nM. Besides, the MIC is 25 µg/mL (≈ 48.8 µM) in data set [2] and greater than 50 µg/mL in data set [3].

As for `CCOC(=O)c1ccc(CS(=O)(=O)N2CCN(c3cnn(-c4cccc(Cl)c4)c(=O)c3OC3CCCC3)CC2)cc1`, the MIC in data set [2] is 0.78 µg/mL (≈ 1.3 µM); in data set [3] it was 6.25 µg/mL (≈ 10.4 µM).

Compound `CCOCCOc1c(N2CCN(S(=O)(=O)Cc3ccccc3)CC2)cnn(-c2ccccc2)c1=O` gave a half-maximal inhibitory concentration (IC50) in data set [1] of 1810 nM. For the same compound, the MIC came out at 0.1 µg/mL (≈ 0.201 µM) in data set [2] and 3.13 µg/mL (≈ 6.28 µM) in data set [3].

Turning to `O=c1c(OC2CCCC2)c(N2CCN(S(=O)(=O)Cc3cccc(C(F)(F)F)c3)CC2)cnn1-c1cccc(Cl)c1`, the results for the MIC in data set [2] and in data set [3] were 0.78 µg/mL (≈ 1.31 µM) and greater than 50 µg/mL, respectively.

As for `O=c1c(OC2CCCC2)c(N2CCN(S(=O)(=O)c3ccsc3)CC2)cnn1-c1cccc(Cl)c1`, in data set [1], the midpoint of inhibition, the IC50, lay at 806 nM. Besides, the results for the MIC in data set [2] and in data set [3] were 0.05 µg/mL (≈ 0.096 µM) and 0.78 µg/mL (≈ 1.5 µM), respectively.

Compound `O=c1c(OC2CCCC2)c(N2CCN(S(=O)(=O)CCc3ccccc3)CC2)cnn1-c1cccc(Cl)c1` had a concentration for half-maximal inhibition (IC50) in data set [1] of 1470 nM. Also, the MIC is 0.08 µg/mL (≈ 0.147 µM) in data set [2] and 5 µg/mL (≈ 9.21 µM) in data set [3].

For the compound `O=c1c(-c2ccc(F)cc2)c(N2CCN(S(=O)(=O)Cc3ccccc3)CC2)cnn1-c1ccccc1`, the MIC in data set [2] amounted to 0.05 µg/mL (≈ 0.0991 µM); in data set [3] it was 6.25 µg/mL (≈ 12.4 µM).

Turning to `O=c1c(OC2CCCC2)c(N2CCN(S(=O)(=O)Cc3noc4ccccc34)CC2)cnn1-c1cccc(Cl)c1`, the midpoint of inhibition in data set [1], the IC50, lay at 140 nM. The MIC was determined as 0.05 µg/mL (≈ 0.0877 µM) in data set [2] and 0.78 µg/mL (≈ 1.37 µM) in data set [3].

Compound `CCOCCOc1nn(-c2ccccc2)c(=O)c(OCCOCC)c1N1CCN(S(=O)(=O)Cc2ccccc2)CC1` gave an IC50 in data set [1] of 7160 nM. For the same compound, the MIC in data set [2] was 6.25 µg/mL (≈ 10.7 µM); in data set [3], greater than 50 µg/mL.

With `O=c1c(OC2CCCC2)c(N2CCN(S(=O)(=O)Cc3ccsc3)CC2)cnn1-c1cccc(Cl)c1`, in data set [1], the half-inhibitory concentration (IC50) was 411 nM. In addition, the MIC in data set [2] is 0.02 µg/mL (≈ 0.0374 µM); in data set [3] it was 2.1 µg/mL (≈ 3.92 µM).

With `O=c1c(OC2CCCC2)c(N2CCN(S(=O)(=O)Cc3ccccc3)CC2)cnn1-c1cccc(Cl)c1`, inhibition in data set [1] was half-maximal at 378 nM (IC50). For the same compound, the MIC in data set [2] amounted to 0.02 µg/mL (≈ 0.0378 µM); in data set [3], 0.39 µg/mL (≈ 0.737 µM).

Consider `O=c1c(OC2CCCC2)c(N2CCN(S(=O)(=O)Cc3cccc(B(O)O)c3)CC2)cnn1-c1cccc(Cl)c1`, for which the values for the MIC in data set [2] and in data set [3] were 0.42 µg/mL (≈ 0.733 µM) and 13.4 µg/mL (≈ 23.4 µM), respectively.

In turn, `CCOCCOc1cc(-c2ccccc2)nnc1N1CCN(S(=O)(=O)Cc2ccccc2)CC1` showed an IC50 in data set [1] of 76700 nM. Moreover, the MIC in data set [2] and in data set [3] was greater than 25 µg/mL in each case.

Usually AUC(0-t) stands for the area under the concentration-time curve up to a stated or last time point. The low end stands for less exposure, the high end for more exposure. Consider `O=C(O)c1ccc(CS(=O)(=O)N2CCN(c3cnn(-c4cccc(Cl)c4)c(=O)c3OC3CCCC3)CC2)cc1`, for which the MIC was 25 µg/mL (≈ 43.6 µM) in data set [2] and greater than 50 µg/mL in data set [3]. The area under the curve AUC(0-t) at 6 h in data set [4] stood at 130 ng·h/mL.

For `N#Cc1ccc(CS(=O)(=O)N2CCN(c3cnn(-c4cccc(Cl)c4)c(=O)c3OC3CCCC3)CC2)cc1`, the MIC worked out at 0.02 µg/mL (≈ 0.0361 µM) in data set [2] and 0.13 µg/mL (≈ 0.235 µM) in data set [3].

As a reminder, the MIC50 is the lowest concentration that inhibits either 50% of growth or 50% of the strains tested, depending on the study. Read a high MIC50 as lower susceptibility. As for `CC(C)(C)S(=O)(=O)N1CCN(c2cnn(-c3cccc(Cl)c3)c(=O)c2OC2CCCC2)CC1`, the IC50 in data set [1] is 828 nM. For the same compound, in data set [2], the MIC was 0.1 µg/mL (≈ 0.202 µM). In data set [3], this compound returned an MIC50 of 0.78 µg/mL (≈ 1.58 µM).

Take `O=c1c(-c2ccc(F)cc2)c(N2CCN(S(=O)(=O)Cc3ccccc3)CC2)ccn1-c1ccccc1`: in data set [1], the IC50 is 4770 nM. Moreover, the MIC in data set [2] is 0.78 µg/mL (≈ 1.55 µM); in data set [3], greater than 50 µg/mL.

In the case of `O=c1c(OC2CCCC2)c(N2CCN(S(=O)(=O)Cc3ccncc3)CC2)cnn1-c1cccc(Cl)c1`, the MIC is less than 0.02 µg/mL in data set [2] and 0.2 µg/mL (≈ 0.377 µM) in data set [3]. In data set [4], this compound had an AUC(0-t) at 6 h of 60 ng·h/mL.

In the case of `O=c1c(OC2CCCC2)c(N2CCN(S(=O)(=O)Cc3ccc(F)cc3)CC2)cnn1-c1cccc(Cl)c1`, the MIC in data set [2] was 0.05 µg/mL (≈ 0.0914 µM); in data set [3], 1.56 µg/mL (≈ 2.85 µM).

In the case of `O=c1c(OC2CCCC2)c(N2CCN(S(=O)(=O)C3CCCC3)CC2)cnn1-c1cccc(Cl)c1`, half-maximal inhibition in data set [1] (IC50) required 1220 nM. The MIC stood at 0.1 µg/mL (≈ 0.197 µM) in data set [2] and 3.13 µg/mL (≈ 6.17 µM) in data set [3].

`O=c1c(OC2CCCC2)c(N2CCN(S(=O)(=O)Cc3ccc([N+](=O)[O-])cc3)CC2)cnn1-c1cccc(Cl)c1`: the MIC is 0.05 µg/mL (≈ 0.0871 µM) in data set [2] and 0.78 µg/mL (≈ 1.36 µM) in data set [3].

Consider `Nc1ccccc1CS(=O)(=O)N1CCN(c2cnn(-c3cccc(Cl)c3)c(=O)c2OC2CCCC2)CC1`, for which the MIC in data set [2] was 0.03 µg/mL (≈ 0.0551 µM); in data set [3], 0.35 µg/mL (≈ 0.643 µM). Moreover, the AUC(0-t) at 6 h in data set [4] was 290 ng·h/mL.

Take `Nc1ccc(CS(=O)(=O)N2CCN(c3cnn(-c4cccc(Cl)c4)c(=O)c3OC3CCCC3)CC2)cc1`: the MIC in data set [2] amounted to 0.2 µg/mL (≈ 0.368 µM); in data set [3], 0.78 µg/mL (≈ 1.43 µM). The compound also registered an AUC(0-t) at 6 h in data set [4] of 80 ng·h/mL.

As for `O=c1c(OC2CCCC2)c(N2CCN(S(=O)(=O)CCCc3ccccc3)CC2)cnn1-c1cccc(Cl)c1`, the 50% inhibitory concentration (IC50) in data set [1] is 41300 nM. The MIC in data set [2] was 3.13 µg/mL (≈ 5.62 µM); in data set [3], greater than 50 µg/mL.

`Nc1cccc(CS(=O)(=O)N2CCN(c3cnn(-c4cccc(Cl)c4)c(=O)c3OC3CCCC3)CC2)c1`: the MIC worked out at 0.39 µg/mL (≈ 0.717 µM) in data set [2] and 3.13 µg/mL (≈ 5.75 µM) in data set [3]. Besides, the AUC(0-t) at 6 h in data set [4] was 50 ng·h/mL.

Turning to `Cc1ccc(CS(=O)(=O)N2CCN(c3cnn(-c4cccc(Cl)c4)c(=O)c3OC3CCCC3)CC2)cc1`, the results for the MIC in data set [2] and in data set [3] were 0.08 µg/mL (≈ 0.147 µM) and 0.31 µg/mL (≈ 0.571 µM), respectively.

For the compound `O=c1c(OC2CCCC2)c(N2CCN(S(=O)(=O)c3ccccc3)CC2)cnn1-c1cccc(Cl)c1`, the MIC in data set [2] is 0.3 µg/mL (≈ 0.582 µM); in data set [3], 3.1 µg/mL (≈ 6.02 µM).

Turning to `O=C(O)CCS(=O)(=O)N1CCN(c2cnn(-c3cccc(Cl)c3)c(=O)c2OC2CCCC2)CC1`, the half-inhibitory concentration (IC50) in data set [1] was 214000 nM. The MIC in data set [2] and in data set [3] was greater than 50 µg/mL in each case.

Take `CCOCCOc1cc(-c2ccccc2)ccc1N1CCN(S(=O)(=O)Cc2ccccc2)CC1`: in data set [1], the IC50 was 287000 nM. Further, the MIC in data set [2] and in data set [3] was greater than 50 µg/mL each time.

On to `COCCS(=O)(=O)N1CCN(c2cnn(-c3cccc(Cl)c3)c(=O)c2OC2CCCC2)CC1`, for which the 50% inhibitory concentration (IC50) in data set [1] was 865 nM. The MIC in data set [2] was 0.2 µg/mL (≈ 0.402 µM); in data set [3], 3.13 µg/mL (≈ 6.3 µM).

`O=c1c(OC2CCCC2)c(N2CCN(S(=O)(=O)c3ccc4ccccc4c3)CC2)cnn1-c1cccc(Cl)c1` gave a concentration for half-maximal inhibition (IC50) in data set [1] of 131 nM. In addition, the MIC in data set [2] turned out to be 1.04 µg/mL (≈ 1.84 µM); in data set [3], 33.4 µg/mL (≈ 59.1 µM).

Take `Cn1ccc2ccc(S(=O)(=O)N3CCN(c4cnn(-c5cccc(Cl)c5)c(=O)c4OC4CCCC4)CC3)cc21`: the half-maximal inhibitory concentration (IC50) in data set [1] was 282 nM. The MIC in data set [2] is 0.2 µg/mL (≈ 0.352 µM). In data set [3], this compound returned an MIC50 of 0.78 µg/mL (≈ 1.37 µM).

For `CCCCCCc1c(N2CCN(S(=O)(=O)Cc3ccccc3)CC2)ncn(-c2cccc(Cl)c2)c1=O`, in data set [1], the IC50 is 2480 nM. In addition, in data set [3], the MIC50 was determined as 9 µg/mL (≈ 17 µM) and the MIC was greater than 25 µg/mL.
